Laboratory results reported in US7176322B2, “Calcium receptor modulating agents” (Amgen Inc., priority 2002, dated 2007).

These compounds were tested against T1, human parathyroid cell Ca2+ receptor (hPCaR) (Homo sapiens, UniProt P41180) (assay: [Ca2+]i measurement (fluo-3 fluorescence) in HEK 293 4.0-7 cells stably transfected with hPCaR). Conditions: HEK 293 4.0-7 cells expressing hPCaR; fluo-3, excitation 485 nm / emission 530 nm.
T1 construct: expressed in transfected cells
T1 sequence (P41180 20-1078): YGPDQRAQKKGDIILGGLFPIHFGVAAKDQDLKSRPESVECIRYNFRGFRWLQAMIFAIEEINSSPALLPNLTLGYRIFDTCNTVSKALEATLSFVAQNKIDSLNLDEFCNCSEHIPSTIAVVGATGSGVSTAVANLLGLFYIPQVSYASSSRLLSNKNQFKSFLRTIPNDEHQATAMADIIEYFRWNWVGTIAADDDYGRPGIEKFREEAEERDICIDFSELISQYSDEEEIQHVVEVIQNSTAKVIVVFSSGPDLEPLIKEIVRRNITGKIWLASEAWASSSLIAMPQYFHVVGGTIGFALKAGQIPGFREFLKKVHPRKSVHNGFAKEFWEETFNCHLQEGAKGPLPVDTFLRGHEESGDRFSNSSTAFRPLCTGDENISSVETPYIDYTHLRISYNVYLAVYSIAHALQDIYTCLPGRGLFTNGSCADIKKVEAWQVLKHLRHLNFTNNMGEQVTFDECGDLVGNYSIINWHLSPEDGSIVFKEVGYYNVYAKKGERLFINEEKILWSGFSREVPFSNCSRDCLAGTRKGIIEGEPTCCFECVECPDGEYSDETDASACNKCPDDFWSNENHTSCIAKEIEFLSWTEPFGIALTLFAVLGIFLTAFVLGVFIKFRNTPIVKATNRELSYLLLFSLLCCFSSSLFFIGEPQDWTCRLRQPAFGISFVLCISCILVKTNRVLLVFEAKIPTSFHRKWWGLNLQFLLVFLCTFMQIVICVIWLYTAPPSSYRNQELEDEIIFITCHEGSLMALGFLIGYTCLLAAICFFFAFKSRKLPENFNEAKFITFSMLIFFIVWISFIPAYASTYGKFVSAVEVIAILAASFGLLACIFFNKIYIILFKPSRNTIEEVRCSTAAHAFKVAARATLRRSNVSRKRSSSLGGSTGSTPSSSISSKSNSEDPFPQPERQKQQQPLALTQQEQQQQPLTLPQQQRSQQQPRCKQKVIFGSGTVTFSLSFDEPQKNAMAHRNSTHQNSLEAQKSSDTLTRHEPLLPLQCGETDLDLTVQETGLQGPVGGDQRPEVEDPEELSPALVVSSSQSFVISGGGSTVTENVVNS
Format: cell-based
Description: The activities of the compounds of the present invention on calcium receptors were measured. In one embodiment, the measurement was performed in accordance with the method described in Example 4 of Nemeth et al., PCT/US95/13704 (International Publication No. WO96/12697) herein incorporated by reference.
A 4.0-kb NotI-HindIII fragment of the human parathyroid cell Ca^2+ receptor (hPCaR) cDNA was subcloned into the mammalian expression vector pCEP4 (Invitrogen) containing the hygromycin-resistant gene as a selectable marker. This plasmid was transfected into HEK 293 cells by calcium phosphate precipitation. Transfected cells were grown in Dulbecco's modified Eagle's medium containing 10% fetal bovine serum and hygromycin (200 μg/mL). Hygromycin-resistant colonies were subcloned and assayed for hPCaR mRNA by solution hybridization using a ^32P-labeled RNA probe complementary to the (4.0 kb) hPCaR sequence (Garrett, et al., J. Biol. Chem. 270, 12919–12925 (1995)). Clone 7 was used to assess the effects of compounds on [Ca^2+]i. This stably transfected cell line is termed HEK 293 4.0–7. For measurements of [Ca^2+]i, the cells were recovered from tissue culture flasks by brief treatment with 0.02% EDTA and then washed and resuspended in PCB containing 1 mM CaCl2 and 0.1% Bovine Serum Albumin (“BSA”). The cells were loaded with fluo-3 by incubation for 30 min at 37° C., with parathyroid cell buffer (126 mM NaCl, 4 mM KCl, 1 mM MgSO4, 0.7 mM K2HPO4/KH2PO4, 20 mM HEPES.NaOH (pH 7.45)) containing 0.5% BSA in 1 mM CaCl2 and 2 μM fluo-3 acetoxymethyl ester. The cells were subsequently washed, each test compound was added to the cells and the fluorescence was recorded by using excitation and emission wavelengths of 485 and 530 nm, respectively.

SMILES | EC50 [µM]
CCn1c2c(c3cc(CN[C@H](C)c4cccc5ccccc45)ccc31)COCC2 [Example 21] | ≤ 10
CCn1c2c(c3cc(CN[C@H](C)c4ccccc4)ccc31)CCC2 [Example 10] | ≤ 10
C[C@@H](NCc1ccc2[nH]ccc2c1)c1cccc2ccccc12 [Example 25, (1R)-N-(1H-indol-5-ylmethyl)-1-(1-naphthalenyl)ethanamine] | ≤ 10
C[C@@H](NCc1ccc2c(c1)ncn2C)c1ccccc1 [Example 12, (R)-N-(1-(Phenyl)ethyl)-N-((1-methylbenzimidazol-5-yl)methyl)amine] | ≤ 10
C[C@@H](NCc1ccc2c(c1)ncn2C)c1cccc2ccccc12 [Example 11, (R)-N-(1-(1-Naphthyl)ethyl)-N-((1-methylbenzimidazol-5-yl)methyl)amine] | ≤ 10
CCn1c2c(c3cc(CN[C@H](C)c4ccccc4)ccc31)CN(C)CC2 [Example 13] | ≤ 10
CCn1c2ccccc2c2cc(CN[C@H](C)c3ccccc3)ccc21 [Example 17, (R)-N-(1-(Phenyl)ethyl)-N-(9-ethyl-3-carbazolylmethyl)amine] | ≤ 10
CCn1c2c(c3cc(CN[C@H](C)c4cccc(OC)c4)ccc31)CN(C)CC2 [Example 14] | ≤ 10
CCn1c2c(c3cc(CN[C@H](C)c4ccccc4)ccc31)COCC2 [Example 19] | ≤ 10
CCn1cc(-c2ccc(OC(F)(F)F)cc2)c2cc(CN[C@H](C)c3ccccc3)ccc21 [Example 29, (1R)-N-((1-ethyl-3-(4-((trifluoromethyl)oxy)phenyl)-1H-indol-5-yl)methyl)-1-phenylethanamine] | ≤ 10
CCn1cc(-c2ccccc2)c2cc(CN[C@H](C)c3ccccc3)ccc21 [Example 28, (1R)-N-((1-ethyl-3-phenyl-1H-indol-5-yl)methyl)-1-phenylethanamine] | ≤ 10
C[C@@H](NCc1ccc2c(c1)c1ccccc1n2CCCN(C)C)c1cccc2ccccc12 [Example 24] | ≤ 10

More lines, now with the values ahead:

EC50 [µM] | SMILES
≤ 10 | CCn1c2ccccc2c2cc(CN[C@H](C)c3cccc(OC)c3)ccc21 [(R)-N-(1-(3-Methoxyphenyl)ethyl)-N-(9-ethyl-3-carbazolylmethyl)amine]
≤ 10 | CCn1ccc2cc(CN[C@H](C)c3cccc4ccccc34)ccc21 [Example 18, (R)-N-(1-(1-Naphthyl)ethyl)-N-((1-ethylindole-5-yl)methyl)amine]
≤ 10 | CCn1nc2ccc(CN[C@H](C)c3cccc(OC)c3)cc2n1 [Example 5, (R)-N-(1-(3-Methoxyphenyl)ethyl)-N-(2′-ethyl-benzotriazol-5-ylmethyl)amine]
≤ 10 | CCn1c2c(c3cc(CN[C@H](C)c4cccc(OC)c4)ccc31)COCC2 [Example 20]
≤ 10 | CCn1nc2ccc(CN[C@H](C)c3cccc4ccccc34)cc2n1 [Example 4, (R)-N-(1-(1-Naphthyl)ethyl)-N-(2′-ethyl-benzotriazol-5-ylmethyl)amine]
≤ 10 | CCn1c2ccc(CN[C@H](C)c3cccc(OC)c3)cc2c2cc(OC)ccc21 [Example 8, (R)-N-(1-(3-Methoxyphenyl)ethyl)-N-(9-ethyl-6-methoxy-3-carbazolylmethyl)amine]
≤ 10 | CCn1c2ccccc2c2cc(CN[C@H](C)c3cccc4ccccc34)ccc21 [(R)-N-(1-(1-Naphthyl)ethyl)-N-(9-ethyl-3-carbazolylmethyl)amine]
≤ 10 | CCn1nc2ccc(CN[C@H](C)c3ccccc3)cc2n1 [Example 6, (R)-N-(1-(Phenyl)ethyl)-N-(2′-ethyl-benzotriazol-5-ylmethyl)amine]
